In patent publication US20140295547A1, “METHOD TO CONSTRUCT IN-VITRO HUMAN BLOOD BRAIN BARRIER MODEL” (National Chung Cheng University, priority 2013, published 2014):

Tested on: in-vitro human BBB model (HBMECs co-cultured with HBVPs and HAs)
Assay: Permeability of propidium iodide across the in-vitro human BBB model
Assay type: in vitro ADME
Excerpt: The present invention uses HBMECs and different ratios of HBVPs and HAs to construct a BBB model and measures TEER and permeability of propidium iodide (PI) to evaluate the integrity and performance of the BBB model. The present invention also uses a fluorescent dye Calcein to detect the activity of P-gp. The present invention also detects the concentrations of the transforming growth factor-β1 (TGF-β1), the matrix. metalloproteinases (MMP-9), and the vascular endothelial growth factor (VEGF), which influence the integrity of the BBB model.
Refer to FIG. 1 and FIG. 2. […] In Step S10, defrost a plurality of small tubes of frozen cell-containing liquids via placing them in water having a temperature of 37° C. for 1 minute until all the frozen cell-containing liquids completely liquefy and become the suspension liquids of HBVPs, HAs and HBMECs. In Step S12, respectively suck the suspension liquids of HBVPs, HAs and HBMECs from the small tubes, respectively place the suspension liquids in pretreated culture plates, and culture the suspension liquids in a carbon-dioxide incubator having a temperature of 37° C. and a relative humidity of 95%. In Step S14, provide a pretreated culture dish 10 having a filter membrane 12 made of PET (polyethylene terephthalate); flip over the filter membrane 12; attach the suspension liquids of HBVPs and HAs by a ratio of 1:1, 1:2, or 1:6 to the bottom surface of the filter membrane 12 of the culture dish 10 to plant HBVPs 14 and HAs 16 on the bottom surface, wherein the time for attaching is 1 hour and the total planting density of HBVPs 14 and HAs 16 is 4×10^5 cells/cm^2. In Step S16, fill the suspension liquid of HBMECs into the top surface of the filter membrane 12 to plant HBMECs 18 on the top surface, wherein the planting density of HBMECs 18 is 4×10^5 cell/cm^2. […]

Compound: CC[N+](C)(CC)CCC[n+]1c(-c2ccccc2)c2cc(N)ccc2c2ccc(N)cc21.[I-].[I-] [propidium iodide]
- PI permeability in comparison with the BBB model with HBVPs:HAs=1:2 (BBB model with HBVPs:HAs=1:1): higher
- PI permeability in comparison with the BBB model with HBVPs:HAs=1:2 (BBB model with HBVPs:HAs=1:6): higher
- permeability of propidium iodide relative to that of a single layer of the cultured HBMECs (HBMECs co-cultured with HBVPs:HAs=1:2, condition medium PCM:ACM 1:1 for 7 days): 39%
